Tests used:
[1] = tested on: LMWH (bemiparin) anticoagulation; experiment: DAP reversal of LMWH (bemiparin) anticoagulation in vivo, aPTT; parameters: species or system rat
Excerpt: (§1) The activated partial thromboplastin time (aPTT) assay is an assay that measures how long it takes for the blood to clot. Blood samples are collected for direct measurement or in tubes with oxalate and citrate to arrest coagulation by calcium until the assay can be performed. In the assay, a phospholipid, an activator (silica, celite, kaolin, ellagic acid, etc.), and calcium are mixed into the plasma to induce coagulation. The assay measures the time until a thrombus (clot) forms.
A male albino rat, weighing 470 g, was administered 10 mg of bemiparin (an overdose of LMWH) by subcutaneous injection. aPTT time was measured over the course of five hours. Four hours after LMWH administration, the rat received an intravenous dose of 200 mg/kg of DAP (100 mg DAP).

[2] = tested on: apixaban anticoagulation; experiment: DAP reversal of apixaban in human plasma ex vivo, Biophen anti-Factor Xa chromogenic assay; assay type: biochemical
Experimental: (§2) The anti-factor Xa assay directly measures anti-factor Xa activity. The methodology behind an anti-factor Xa assay is that patient plasma is added to a known amount of excess factor Xa and excess antithrombin. If a factor Xa inhibitor is present in the patient plasma, it will reduce the enzymatic activity of factor Xa. The amount of residual factor Xa is inversely proportional to the amount of anti-Xa agent in the plasma. The amount of residual factor Xa is detected by adding a chromogenic substrate that mimics the natural substrate of factor Xa, making residual factor Xa cleave it, releasing a colored compound that can be detected by a spectrophotometer. […] Results are given in anticoagulant concentration in units/mL of antifactor Xa, such that high values indicate high levels of anticoagulation and low values indicate low levels of anticoagulation.
218 μg/L or 459 μg/L of rivaroxaban was added to human plasma, with or without 1,250 μg/L or 6,250 μg/L of DAP, respectively. […] DAP effect on anticoagulation was measured by 510 k cleared Biophen anti-Factor Xa chromogenic assay. Rivaroxaban concentrations were determined by comparison with plasma calibration standards, while apixaban concentrations were inferred from stock solution dilutions as calibration standards are not yet available.

[3] = DLS association of DAP with rivaroxaban; assay type: binding
Experimental: Rivaroxaban (XARELTO®) alone, DAP alone, and DAP:rivaroxaban combinations at mass ratios of 1:1 and 10:1 were added into an aqueous solution and analyzed by dynamic light scattering (DLS) to assess association of the DAP and rivaroxaban. A similar experiment was conducted on apixaban (ELIQUIS®) alone, DAP alone, and DAP:apixaban combinations at mass ratios of 1:1, 10:1 and 100:1. Fondaparinux (ARIXTRA®) alone, DAP alone, and fondaparinux:DAP combinations at mass ratios of 1:1, 10:1 and 100:1 were similarly tested. LMWH (bemiparin; HIBOR®), alone, DAP alone, and LMWH:DAP combinations at mass ratios of 1:1, 10:1, and 100:1 were also tested. The concentration of LMWH tested was 0.1 mg/ml. Therefore, at 1:1, 0.1 mg/ml DAP was tested, at 10:1, 1 mg/ml was tested, and at 100:1, 10 mg/ml DAP was tested.

[4] = tested on: rivaroxaban (XARELTO®) anticoagulation; experiment: DAP reversal of rivaroxaban (XARELTO®) anticoagulation in vivo, aPTT; parameters: species or system rat; details: rats, 5 mg/kg rivaroxaban oral, 5 mg/kg (2 mg) DAP i.v.
Experimental: as §1
5 mg/kg rivaroxaban (XARELTO®) was orally administered to rats. After four hours, 5 mg/kg of DAP (2 mg DAP) was administered intravenously. aPTT were measured at zero, 15, 30, 45, 60 and 240 minutes, prior to administration of DAP. aPTT was again measured at about 5, 10, 25, 35, 45, 60, 120, and 240 minutes after DAP administration.

[5] = DLS association of DAP with argatroban; assay type: binding; details: concentrations up to 1:1000
[6] = Water solubility of DAP; assay type: physicochemical
Experimental: In one embodiment, wherein the pharmaceutical composition comprises the DAP compound of formula V (or its stereoisomer of formula VII) and the composition is adapted for parenteral administration in an injection, the compound is dissolved in water with appropriate tonicity and molality modifiers (such as phosphate buffered saline). DAP is water-soluble at greater than 100 mg/ml. In the one embodiment, DAP is adapted as a sterile solution for IV administration. In one aspect, the molality of the pharmaceutical composition in which DAP is adapted for IV administration is adjusted to 290 mOsm/L with sodium chloride, and the pH is adjusted to 7.4 with sodium hydroxide. Preferably the pharmaceutical composition is administered as an intravenous bolus by slow push.

[7] = tested on: fondaparinux anticoagulation; experiment: DAP reversal of fondaparinux (ARIXTRA®) anticoagulation in vivo, chromogenic Factor Xa assay; parameters: species or system rat
Experimental: as §2
5 mg/kg fondaparinux was administered subcutaneously to rats. 200 mg/kg DAP was administered intravenously after 2 hours. Activity was measured by chromogenic 510 k cleared Factor Xa Assay (Biophen) at 10, 20, 30 and 60 minutes after DAP administration.

[8] = tested on: aPTT; experiment: Intravenous DAP alone, aPTT in the absence of anticoagulants; assay type: in vivo, rat; details: 0, 2, 10, 25, 50 or 100 mg DAP i.v., no anticoagulant
Experimental: 0, 2, 10, 25, 50 or 100 mg DAP were administered intravenously to male, weight matched CD rats and aPTT was measured.

[9] = Stability of DAP powder: storage at 4° C. and differential scanning calorimetry; assay type: physicochemical
Experimental: An acetate salt of DAP was prepared as described herein. As described in these examples, DAP solid or powder refers to the acetate salt, while DAP in solution refers to the free base as the salt ionizes in aqueous solution. As described in these examples, the DAP compound used was the compound of Formula VII.
The DAP powder was tested for thermal stability in two ways. DAP was stored at 4° C. for 7 months prior to use. Additionally, the DAP solid was tested by differential scanning calorimetry (DSC) by heating from −20° C. to 200° C., back to −20° C. and again to 200° C.

[10] = tested on: plasma proteins; experiment: Plasma protein binding; assay type: in vitro ADME; details: data not shown

binding by DLS [3]: directly bound | binding by DLS [5]: did not bind | solubility [6]: > 100 mg/mL | stability to storage as a lyophilized powder ([9]; 4° C.): more than one year | stability of DAP powder on storage ([9]; 4° C., powder (acetate salt)): more than 12 months | plasma protein binding [10]: did not appreciably bind
Structure (SMILES): N=C(N)NCCC[C@H](N)C(=O)NCCCN1CCN(CCCNC(=O)[C@@H](N)CCCNC(=N)N)CC1 (stereo in doubt) [DAP, 2-Amino-5-guanidino-pentanoic acid (3-{4-[3-(2-amino-5-guanidino-pentanoylamino)-propyl]-piperazin-1-yl}-propyl)-amide]
time until aPTT below baseline after DAP ([1]; 200 mg/kg (100 mg) DAP i.v. four hours after 10 mg bemiparin s.c.): ≤ 60 min | reversal of subcutaneous LMWH anticoagulation in vivo ([1]; rats, aPTT): reversed | effective anticoagulant concentration after DAP ([2]; 156 μg/L apixaban with 1,156 μg/L DAP, 313 μg/L apixaban with 3,125 μg/L DAP): below the minimum effective concentration | dose dependence of apixaban reversal ([2]; human blood ex vivo): dose-dependent reversal | reversal of oral rivaroxaban anticoagulation in vivo [4]: effectively reversed | time to reversal of fondaparinux anticoagulation ([7]; 5 mg/kg fondaparinux s.c., 200 mg/kg DAP i.v. after 2 hours): ≤ 10 min | reversal of subcutaneous fondaparinux in vivo ([7]; rats, Xa activity): reversed | influence of DAP on aPTT [8]: did not influence aPTT | thermal stability (DSC, stability to sterilization) ([9]; heating from −20° C. to 200° C., twice): survived repeated heating to 200 °C

Reference: US9877961B2, “Anticoagulant reversal agents” (PEROSPHERE INC., priority 2011, dated 2018)
